Results reported in patent US20250059191A1, “CRYSTALLINE FORMS OF DIAZABICYCLOOCTANE DERIVATIVE AND PRODUCTION PROCESS THEREOF” (MEIJI SEIKA PHARMA CO., LTD., priority 2013, published 2025).

Experiments:
[1] = Stability test of amorphous form and crystalline forms I-IV, 40° C./75% RH, airtight container; type: physicochemical
Method: Crystalline form III of Example 7a were dissolved in water and subjected to lyophilisation to afford (2S,5R)-N-(2-aminoethoxy)-7-oxo-6-(sulfooxy)-1,6-diazabicyclo[3.2.1]octane-2-carboxamide (VII-1) in an amorphous form. The compounds in an amorphous form and crystalline forms I-IV of Examples 5-8 were each weighed in a screw bottle, and stability tests were conducted at each of the temperatures and humidity conditions. The methods of measurement of related substances, content measurement, and water content measurement were as follows.
Samples were dissolved in water, and these solutions were used as sample solutions. The sample solutions each in the amount of 5 μL were tested under the following conditions by JP16, Liquid Chromatography <2.01>to obtain the amount of each related substance (%) and the total amount of related substances (%), and the content.
• Column: Waters Atlantis dc18, 5 μm, 4.6×250 mm • Column temperature: a constant temperature of about 35° C. • Injected amount: 5 μL • Detector: an ultraviolet absorption photometer (wavelength: 210 nm) • Mobile phase A: 1.32 g of diammonium hydrogenphosphate was dissolved in 900 mL of water, and phosphoric acid was added to adjust the pH to 3.0. To this was then added water to make 1000 mL. • Mobile phase B: Acetonitrile for liquid chromatography • Gradient program: The mixing ratio of mobile phase A to mobile phase B was controlled as the following time program.
About 20 mg of the product was precisely measured and tested by JP16, Water Determination <2.48>Coulometric titration.

[2] = Solubility in aqueous isopropanol solution; type: physicochemical
Excerpt: Crystalline forms I, II and III are distinguished by DSC, solubility in aqueous isopropanol, and lattice spacing in powder X-ray diffraction patterns. […]

Row | Compound | Content ([1]; 1 month) [%] | Total amount of related substances ([1]; 1 month) [%] | Water content ([1]; 1 month) [%] | Content ([1]; 3 months) [%] | Total amount of related substances ([1]; 3 months) [%] | Water content ([1]; 3 months) [%] | Content ([1]; at start) [%] | Total amount of related substances ([1]; at start) [%] | Water content ([1]; at start) [%] | also measured
1 | NCCONC(=O)[C@@H]1CC[C@@H]2CN1C(=O)N2OS(=O)(=O)O [Amorphous form, (2S,5R)-N-(2-aminoethoxy)-7-oxo-6-(sulfooxy)-1,6-diazabicyclo[3.2.1]octane-2-carboxamide] | 93.3 | 6.6 | 3.3 | 87.5 | 12.3 | 3.8 | 99.4 | 0.5 | 1.3 | –
2 | NCCONC(=O)[C@@H]1CC[C@@H]2CN1C(=O)N2OS(=O)(=O)O [Crystalline form I, (2S,5R)-N-(2-aminoethoxy)-7-oxo-6-(sulfooxy)-1,6-diazabicyclo[3.2.1]octane-2-carboxamide] | 99.9 | 0.0 | 5.4 | 99.8 | 0.1 | 5.6 | 99.9 | 0.1 | 5.4 | Solubility in aqueous isopropanol, comparison of crystalline forms I, II and III [2]: lowest solubility; Solubility in an aqueous 60% isopropanol solution ([2]; 10° C.): 0.44%; Solubility in an aqueous 60% isopropanol solution ([2]; 20° C.): 0.48%; Content ([1]; 1 month, listed as Form I): 99.9%; Total amount of related substances ([1]; 1 month, listed as Form I): 0.0%; Water content ([1]; 1 month, listed as Form I): 5.4%; Content ([1]; 3 months, listed as Form I): 99.8%; Total amount of related substances ([1]; 3 months, listed as Form I): 0.1%; Water content ([1]; 3 months, listed as Form I): 5.6%; Content ([1]; at start, listed as Form I): 99.9%; Total amount of related substances ([1]; at start, listed as Form I): 0.1%; Water content ([1]; at start, listed as Form I): 5.4%
